# In US11505592B2, “Diagnosis and therapy of multiple sclerosis” (PRINDEX S.R.L., priority 2015, dated 2022):
# Assays:
# MS sera = test: PEPSCAN-based ELISA, binding of MS sera to library peptides; parameters: species or system human; details: ELISA binding value, MS sera n = 9
# Text: (§1) The linear and CLIPS peptides are synthesized based on the amino acid sequence of the target protein using standard Fmoc-chemistry and deprotected using […] with scavengers. The constrained peptides are synthesized on chemical scaffolds in order to reconstruct conformational epitopes, using Chemically Linked Peptides on Scaffolds (CLIPS) technology (Timmerman et al. (2007). For example, the single looped peptides are synthesized containing a dicysteine, which was cyclized by treating with alpha, alpha′-dibromoxylene and the size of the loop is varied by introducing cysteine residues at variable spacing. If other cysteines besides the newly introduced cysteines are present, they are replaced by alanine. The side-chains of the multiple cysteines in the peptides are coupled to CLIPS templates by reacting onto credit-card format polypropylene PEPSCAN cards (455 peptide formats/card) with a 0.5 mM solution of CLIPS template such as 1,3-bis (bromomethyl) benzene in ammonium bicarbonate (20 mM, pH 7.9)/acetonitrile (1:1(v/v)). The cards are gently shaken in the solution for 30 to 60 minutes while completely covered in solution. Finally, the cards are washed extensively with excess of H2O and sonicated in distrupt-buffer containing 1 percent SDS/0.1 percent beta-mercaptoethanol in PBS (pH 7.2) at 70° C. for 30 minutes, followed by sonication in H2O for another 45 minutes.
# (§2) The binding of antibody to each peptide is tested in a PEPSCAN-based ELISA. The 455-well credit card format polypropylene cards containing the covalently linked peptides are incubated with primary antibody solution for example consisting of 1/1000 diluted serum in blocking solution, for example 4% horse serum, 5% ovalbumin (w/v) in PBS/1% Tween. After washing, the peptides are incubated with a 1/1000 dilution of antibody peroxidase conjugate for one hour at 25° C. After washing, the peroxidase substrate 2,2′-azino-di-3-ethylbenzthiazoline sulfonate (ABTS) and 2 microlitres of 3 percent H2O2 are added. After one hour, the color development are measured. The color development are quantified with a charge coupled device (CCD)-camera and an image processing system (Slootstra et al., 1996).
# (§3) The raw data are optical values obtained by a CCD-camera calibrated to export absorption values compatible with a standard 96-well plate ELISA-reader. First the CCD-camera makes a picture of the card before peroxidase coloring and then again a picture after the peroxidase coloring. These two pictures are substracted from each other yielding a binding value for each peptide.
# (§4) All peptides have been synthesized in a peptide array format and the binding of 20 different sera to all peptide libraries were measured in an ELISA based set up following the procedure described in detail in the method section “Peptide synthesis and screening assays”. In particular 2 sets of experiments were performed on the 2 libraries by using 2 different dilutions of the human patients sera. In the first set of experiment the 20 sera were used at 1:2500 dilutions, while in the second experiment the dilution of the sera was 1:1000. The binding of the different sera to all peptides was quantified and analyzed in detail (Tables 1 and 2, FIGS. 15A, B, C, D and […]
# CTRL sera = test: PEPSCAN-based ELISA, binding of control (CTRL) sera to library peptides; parameters: species or system human; details: ELISA binding value, CTRLs n = 10
# Text: as §1, §2, §3, §4
# MS IgG = test: Indirect ELISA of MS IgG binding to receptor peptides; parameters: species or system human; details: 100 μM peptide; 200 μg immunoglobulins
# Method: FIG. 6: Dose-response curves of the interaction between MS sera and DDSK peptide. (A) Sera of Multiple Sclerosis patients and Control (control group is defined in material and method below) (200 μg) were incubated with different concentrations (50-100-250 μM) of peptide DDSK. For the detection, inventors used a secondary antibody anti human IgG conjugated with HRP and (3,3′,5,5′-Tetramethylbenzidine) TMB solution that was added for each well and incubated for 15-30 min. Equal volume of stopping solution (2 M H2SO4) was added to the plate and absorbance (optical density) of plate was read at 450 nm. The statistical analysis derived from 9 experiments. Values are mean±SEM. *P<0.05 MS vs CTRL (B) Linear representation of dose-response curve Values are mean±SEM. *P<0.05 MS vs CTRL.
# FIGS. 7A, 7B, 7C and 7D: MS sera recognize specially receptor's peptides. […] Equal volume of stopping solution (2 M H2SO4) was added to the plate and absorbance (optical density) of plate was read at 450 nm. […]
# A. Sera of Multiple Sclerosis patients and Control (200 μg) were incubated in absence (uncoated) or presence of 100 μM of DDSK peptide. […] Equal volume of stopping solution (2 M H2SO4) was added to the plate and absorbance (optical density) of plate was read at 450 nm. […]
# Diluted peptide (20 μg/ml) was coated to the wells of a PVC microtiter plate and incubated at 4° C. overnight. […] For the detection, we used a secondary antibody anti human (recognized constant region of the patient antibody conjugated with HRP and (3,3′,5,5′-Tetramethylbenzidine) TMB solution that was added for each well and incubated for 15-30 min. Equal volume of stopping solution (2 M H2SO4) was added to the plate and absorbance (optical density) of plate was read at 450 nm.
# To evaluate the peptide concentration to use for ELISA assay we performed a dose-response curve. […] (named DDSK in the figures) and the absorbance (optical density) of plate was read at 450 nm. […]
# MO3-13 cells = test: Determination of reactive oxygen species (DCF fluorescence) in MO3-13 cells; type: cell-based, human; details: 50 μM peptide 30 min, then 200 μg/ml IgG MS 30 min
# Method: (§5) FIG. 10A: DDSK peptide reverts the effects of Ig from MS patients on ROS levels in MO3-13 cells. MO3-13 cells were grown to semi-confluence in 24 multiwell plates and incubated for 18 h in medium containing 0.2% FBS. The cells were washed twice with FBS free medium, incubated with 50 μM of DDSK for 30 min and then with 200 μg/ml of IgG from Control (IgGCtr) or MS (IgGMS) patients for 30 min. Then, the cells were incubated with 10 μM DCHF-DA for 10 min, washed three times and DCF fluorescence was measured using a plate reader fluorometer. The histograms show the mean+/−SEM values obtained in 5 different experiments from 7 control and 7 MS subjects. # p<0.05 vs IgGCtr; *p<0.05 vs IgGMS.
# as §5, with “MO3-13” for “FIG. 10A: DDSK peptide reverts the effects of Ig from MS patients on ROS levels in MO3-13 cells. MO3-13”, “Scrambled peptide (Sc)” for “DDSK”, “obtained” for “obtained in 5 different experiments”, “3” for “7”, “subjects.” for “subjects. # p<0.05 vs IgGCtr;”, “IgGCtr.” for “IgGMS.”
# ROS levels were determined using the membrane-permeant fluorogenic probe 5,6-carboxy-2′,7′-dichlorofluoresceindiacetate, DCHFDA (Molecular Probes, Leiden, the Netherlands). The assay was based on the fluorescence detection of dichlorofluorescein (DCF), formed by ROS-mediated oxidation of the non-fluorescent precursor, dichlorofluorescin.
# MO3-13 cells were grown to semi-confluence in 24 multiwell plates (45000 cell/well) and incubated for 18 h in medium containing 0.2% FBS before the experiments. […] DCF fluorescence was measured using the plate reader Fluoroskan Ascent FL fluorometer (Thermo Electron Oy, Vantaa, Finland) and data analyzed by Ascent software.
Sequence,MEAN MS (MS sera; NOX2 library),MEAN CTRL (CTRL sera; NOX2 library),further results
LGDRQNESYLNFARK [SEQ ID NO: 104],457.556,252.4,–
LNFARKRIK [SEQ ID NO: 59],557.056,294.6,–
LNFARKRIKNAAGGL [SEQ ID NO: 91],354.778,187.85,–
LTILYGYRWPAASKL [Peptide 3],–,–,MEAN MS (MS sera; 5HT2A receptor library): 653.28; MEAN CTRL (CTRL sera; 5HT2A receptor library): 322.35
LTILYGYRWPLPSKL [Peptide 8],–,–,MEAN MS (MS sera; 5HT2A receptor library): 647.17; MEAN CTRL (CTRL sera; 5HT2A receptor library): 340.05
LYGYRWPLPSKL,–,–,binding of MS IgG to peptide respect to scrambled (MS IgG): bind specifically
NESYLNFARKAAKNP [SEQ ID NO: 62],505.278,279.1,–
NESYLNFARKRIKNP [SEQ ID NO: 109],602.889,333.75,–
NFARKRIKN [SEQ ID NO: 58],613.833,288.95,–
NFARKRIKNPAAGLY [SEQ ID NO: 77],604.167,323.85,–
NITVCEQKISAAGKI [SEQ ID NO: 96],564.500,314.2,–
QDDSKVFKEGAALLA [Peptide 33],–,–,MEAN MS (MS sera; 5HT2A receptor library): 439.11; MEAN CTRL (CTRL sera; 5HT2A receptor library): 263.70
QKISEWGKI [SEQ ID NO: 146],508.333,298.2,–
QKISEWGKIKAAPIP [SEQ ID NO: 88],701.889,364.3,–
QNESYLNFARAAIKN [SEQ ID NO: 113],421.722,244,–
QNESYLNFARKRIKN [SEQ ID NO: 63],610.778,309.65,–
RQNESYLNFARKRIK [SEQ ID NO: 76],458.833,241.2,–
STTNSLMQLNAATRL [Peptide 31],–,–,MEAN MS (MS sera; 5HT2A receptor library): 611.83; MEAN CTRL (CTRL sera; 5HT2A receptor library): 385.15
SYLNFARKRIAAPEG [SEQ ID NO: 71],472.000,259.75,–
TILYGYRWPLPSKLC [Peptide 29],–,–,MEAN MS (MS sera; 5HT2A receptor library): 651.50; MEAN CTRL (CTRL sera; 5HT2A receptor library): 378.20
TVCEQKISEWGKIKE [SEQ ID NO: 94],514.944,289.4,–
TVDSENRTNLAAEGC [Peptide 23],–,–,MEAN MS (MS sera; 5HT2A receptor library): 587.33; MEAN CTRL (CTRL sera; 5HT2A receptor library): 348.10
"TWYAHNCRLQ [Scrambled peptides, scrambled peptide used as negative control, reference compound]",–,–,effect of peptide preincubation on ROS levels of IgG MS treated cells (MO3-13 cells): did not influence
VNARVNNSDPAAVAL [SEQ ID NO: 118],426.444,219.15,–
WCVNARVNNSDPYSV [SEQ ID NO: 121],283.889,163.8,–
WGKIKECPI [SEQ ID NO: 116],501.389,303.25,–
YLNFARKRI [SEQ ID NO: 140],601.667,345.85,–
YLNFARKRIKAAEGG [SEQ ID NO: 119],299.167,181.3,–
YRWPLPSKL [Peptide 5],–,–,MEAN MS (MS sera; 5HT2A receptor library): 566.00; MEAN CTRL (CTRL sera; 5HT2A receptor library): 285.70
